{"source": "patent US20250195523A1", "about": "“ORGANIC MOLECULES FOR TREATING MYELIN PATHOLOGIES” (ICM (INSTITUT DU CERVEAU ET DE LA MOELLE ÉPINIÈRE), priority 2022, published 2025)", "key": {"[1]": {"system": "primary OPCs purified by magnetic cell sorting (MACS) from neonatal cortices", "assay": "Primary OPC cultures purified by MACS, morphological complexity of OLs", "type": "cell-based, mice", "conditions": "OPCs treated for two days; compared to vehicle; FIG. 2B", "description": "Brains were collected from PLPGFP and P4 Swiss mice […] and washed 3 times in PBS 1× (Invitrogen) with 1% of penicillin/streptomycin (Sigma). Cortex and corpus callosum were dissected and dissociated using neural tissue dissociation kit (T) (Miltenyi biotec) and with dissociator (gentleMACS Octo Dissociator, Miltenyi Biotec). OPC magnetic cell sorting was performed using anti-PDGFRα-coupled-beads (CD140a-PDGFRα MicroBead Kit, Miltenyi biotec) and MultiMACS Cell24 Separator Plus (Miltenyi biotec). Cells were collected in PBS and amplified for 2 days in a proliferating medium (with growth factors IGF, EGF, FGF, and PDGFα). Then, 40.000 cells were plated in 24 well plates adherent on coverslips, beforehand coated with poly-ornithine (Merck) diluted in 4 volumes of H2O and washed 3 times. Successively, for 2 days of proliferation and differentiation, medium was added with drugs at 250 nM, 500 nM and 750 nM, and their respective vehicles (DMSO, PBS). Cells were fixed in 4% PBS-paraformaldehyde (thermo fisher) for 10 minutes and washed 3 times in PBS-1×.\nFor coated-coverslip, blocking was performed in a moist chamber for 30 mn at room temperature (RT) in the blocking buffer (0.05% Triton X-100/10% normal goat serum/PBS). Then, coverslip were incubated for 30 mn with the following primary antibodies at RT. Rat anti-PDGFRα (1:250, BD Biosciences); Mouse anti-CNPase (mlgG1, 1:250; Millipore); Rabbit anti-Btub (1:1000; BABCO); Chicken anti-GFAP (1:500, Avelabs), Mouse anti-MBP (mlgG1, 1:150; Abcam); Rabbit anti-Sox10 (1:1000; Proteintech). Following 3 washing in 0.05% Triton X-100/PBS, coverslips were incubated 30 min at RT in dark with appropriate secondary antibodies conjugated with Alexa Fluor 488, 594 and 647 (1:1000; Molecular Probes or Thermo Fisher) and Dapi (1:5000 from working solution at 5 mg/ml; Life Technologies; D1306). Coverslips were washed 3 times in 0.05% Triton X-100/PBS and mounted with Fluoromount-G (SouthernBiotech).\nTo evaluate cell specific contribution of the drugs directly in OL differentiation and maturation, we used primary OPCs purified by magnetic cell sorting (MACS) from neonatal cortices (P4)."}, "[2]": {"system": "focal demyelination in the corpus callosum of adult mice", "assay": "Lysolecithin (LPC) induced focal de/remyelination model in adult mice, oral administration in drinking water", "type": "in vivo", "conditions": "7 dpl, oral daily", "description": "We weighted and anesthetized 4 months old RjOrl: SWISS mice (Janvier) with isoflurane (induced at 3%, and maintained at 1.2-1.6%). We induced focal demyelinating lesions by injecting 0.5 μl of a solution of 1% lysolecithin (LPC, Sigma in 0.9% NaCl solution) into the corpus callosum. To do so, a glass-capillary connected to a 10 μl Hamilton syringe was fixed and oriented through stereotaxic apparatus (coordinates: 1 mm lateral, 1.3 mm rostral to Bregma, 1.7 mm deep to brain surface). Animals were left to recover for a few hours in a warm chamber. […] Mice was perfused at 2% cold paraformaldehyde (thermos fisher) at 7 DPI.\nFor in-vivo cryosections (14-μm thick) of lesions, immunohistochemistry was performed after 30 mn drying at RT in a moist chamber. For myelin staining, ethanol treatment (100%) was performed for 10 mn at RT. Briefly, sections were permeabilized and blocked in a blocking buffer for 1 h (0.05% Triton X-100/10% normal goat serum/PBS). Then, cryosections were incubated overnight with the following primary antibodies at 4° C.: Mouse anti-APC (CC1 IgG2B; 1:100, calbiochem); Rabbit anti-Olig2 (1:500; Millipore); Mouse anti-Olig1 (IgG1; 1:500; NeuroMab); Rat anti-CD68 (1:500, AbD SEROTEC/BioRad); Rabbit anti-IBA1 (1:500, Wako Fujifilm); Mouse anti-MOOG (mlgG1, 1:20; Hybridoma). Then sections were washed 3 times in 0.05% Triton X-100/PBS and incubated 1 hour at RT with appropriate secondary antibodies conjugated with Alexa Fluor 488, 594 and 647 (1:1000; Molecular Probes or Thermo Fisher) and Dapi (1:5000 from working solution at 5 mg/ml; Life Technologies; D1306). Sections were washed 3 times in 0.05% Triton X-100/PBS and mounted with Fluoromount-G (SouthernBiotech).\nWe analyzed the lesions at 7 days post-lesion (7 dpl), when newly formed OLs have started to remyelinate the lesion in this model. The lesion area was identified by immunodetection of the high cellular density with DAPI staining, reduction of myelin with myelin oligodendrocyte glycoprotein (MOG), and abundance of microglia/macrophages with Iba1 and Cd68. We determined the effect of the drugs to promote oligodendrogenesis at the lesion site by combinatory immunodetection of Olig2, CC1 and Olig1, allowing to distinguish OPCs (Olig2^high/CC1^−/Olig1^nuclear-cyto cells) and three stages in OL differentiation: iOL1 (Olig2^high/CC1^high/Olig1^− cells), iOL2 (Olig2^high/CC1^high/Olig1^high-cyto cells), and mOL (Olig2^low/CC1^low/Olig1^low cells). […] Given the increase in OL differentiation by the drugs administration, without diminishing the pool of OPCs in the lesion area, we assessed for the proliferative status of OPCs, using Mcm2 and Ki67 proliferative markers, finding that both drugs promote a ˜2-fold increase in the density of proliferative OPCs (FIG. 4D) and in the proportion of proliferative OPCs (FIG. 4E).\nTo investigate the possible anti-inflammatory and pro-regenerative activity of these drugs, we performed staining for microglia/macrophages (Iba1+ cells), their active phagocytic status (Cd68+ cells), together with myelin (MOG) and cell density (DAPI) to identify the lesion area."}}}
{"smiles": "CCCCOc1ccc(C(=O)CCN2CCCCC2)cc1.Cl", "note": "[Sm5, Dyclonine hydrochloride]", "values": [{"measurement": "morphological complexity of OLs (PLP+ cells)", "setting": "[1]", "result": "strongly increased"}, {"measurement": "number of oligodendroglial cells in the remyelinating area (Olig2+ cells)", "setting": "[2]; sm5 at 5 μg per g, control 942.5±265.7, FIG. 4B", "result": "1208±281.1", "unit": "Olig2+ cells per mm^2"}, {"measurement": "density of OPCs (Olig2high/CC1−/Olig1nuclear-cyto cells) in the lesion area", "setting": "[2]; FIG. 4C", "result": "did not change"}, {"measurement": "increase of the differentiation ratio (number of OLs per OPC) versus control", "setting": "[2]; FIG. 4F", "result": 2, "unit": "fold"}, {"measurement": "pro-regenerative microglia (Arg1+ cells)", "setting": "[2]; FIG. 4I", "result": "corresponding increase"}, {"measurement": "actively phagocytic microglia/macrophages (Cd68+ cells)", "setting": "[2]; control 22.45%, FIG. 4H", "result": "reduction of their phagocytic population"}, {"measurement": "differentiation ratio (number of OLs per OPC)", "setting": "[2]; control 25% (1 OLs for 4 OPCs), FIG. 4F", "result": 50, "unit": "%"}, {"measurement": "surface occupied by Iba1+ microglia/macrophages in the lesion area", "setting": "[2]; control 33.64%, FIG. 4G", "result": "trend to reduce"}, {"measurement": "increase of each stage of OL differentiation (iOL1, iOL2 & mOL)", "setting": "[2]; versus control", "result": "more moderate effect only significant at the iOL2 stage"}, {"measurement": "increase in the density of proliferative OPCs (Mcm2, Ki67 markers)", "setting": "[2]; versus control, FIG. 4D", "result": "~2", "unit": "fold"}, {"measurement": "increase in the proportion of proliferative OPCs", "setting": "[2]; versus control, FIG. 4E", "result": "~2", "unit": "fold"}]}
